ChEMBL document CHEMBL1201862, “PubChem BioAssay data set” (2004)
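Grown in 96-well plates, cells were treated for 48 hours with each compound at five concentrations. Insufficient inhibition: endpoint recorded as highest concentration tested. GI50: concentration for 50% inhibition of growth.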 The source made the active and inactive calls. Rule as the data show it: active = GI50 up to about 1.1 µM and inactive = higher.

How the values were obtained:
Assay in all cases: NCI anticancer screen, dose series, 48 h
[1] = tested on: RXF 393
[2] = tested on: SNB-75
[3] = tested on: NCI-H460
[4] = tested on: OVCAR-5
[5] = tested on: SN12C
[6] = tested on: SF-295
[7] = tested on: SW-620
[8] = tested on: EKVX
[9] = tested on: SR
[10] = tested on: RPMI-8226
[11] = tested on: OVCAR-8
[12] = tested on: SK-MEL-5
[13] = tested on: SNB-19
[14] = tested on: COLO 205
[15] = tested on: UACC-257
[16] = tested on: NCI-H522
[17] = tested on: Malme-3M
[18] = tested on: SF-539
[19] = tested on: U-251
[20] = tested on: M14

Measured: GI50

COC(=O)c1sc2nc(Nc3ccccc3)/c(=N\c3ccccc3)sc2c1C
inactive: [1] 24.3 µM | [2] 25 µM | [3] 45.4 µM | [4] > 100 µM | [5] 92.9 µM | [6] 51.4 µM | [7] > 100 µM | [8] 59.6 µM | [9] 47.6 µM | [10] > 100 µM | [11] 64.1 µM | [12] 88.5 µM | [13] 36.6 µM | [14] > 100 µM | [15] > 100 µM | [16] 30.3 µM | [17] > 100 µM | [18] 51.9 µM | [19] 48.6 µM

Oc1cc(Br)cc2cc(Br)cnc12
inactive: [1] 1.6 µM | [2] 3.47 µM | [20] 2.4 µM | [3] 1.3 µM | [5] 3.62 µM | [6] 2.64 µM | [7] 2.24 µM | [8] 3.85 µM | [9] 1.26 µM | [10] 2.63 µM | [11] 2.96 µM | [12] 2.48 µM | [13] 3.33 µM | [14] 32.3 µM | [15] 3.21 µM | [16] 2.3 µM | [17] 2.4 µM | [18] 3.78 µM

CCCCCC/C=C\CCCCCCCCC(=O)c1cccc(OC)c1OC
inactive: [1] 21 µM | [2] > 100 µM | [20] > 100 µM | [4] > 100 µM | [5] > 100 µM | [6] 45.7 µM | [7] > 100 µM | [8] > 100 µM | [9] 64.9 µM | [10] 34 µM | [11] > 100 µM | [12] 15.2 µM | [13] > 100 µM | [14] 87.3 µM | [15] 34.4 µM | [16] 44.6 µM | [17] > 100 µM | [18] > 100 µM | [19] > 100 µM

COc1ccc2c3ccc4c(c3n(C)c2c1)C(=O)c1ccccc1C4=O
inactive: [1] > 100 µM | [2] > 100 µM | [20] > 100 µM | [5] > 100 µM | [6] 78.2 µM | [7] 80.2 µM | [8] > 100 µM | [9] > 100 µM | [10] > 100 µM | [11] 36.9 µM | [12] > 100 µM | [13] > 100 µM | [14] 75.2 µM | [15] > 100 µM | [16] > 100 µM | [17] 85.7 µM | [18] 22.2 µM | [19] 63.8 µM

OCC(O)C(O)C(O)c1nn(-c2ccc(Cl)cc2)c2nc3cc(Cl)c(Cl)cc3nc12 (configuration not stated)
inactive: [1] 21.8 µM | [2] 3.66 µM | [20] 22.7 µM | [3] 68.7 µM | [4] > 100 µM | [5] > 100 µM | [6] 67.6 µM | [7] > 100 µM | [8] 22.8 µM | [9] > 100 µM | [10] > 100 µM | [11] 22.5 µM | [13] 33.7 µM | [14] > 100 µM | [15] 86.3 µM | [16] 27.1 µM | [17] 15.2 µM | [18] 42.8 µM | [19] 57.5 µM

O=C(c1ccccc1)N1CCC(Nc2nccs2)O1 (configuration not stated)
inactive: [1] > 10 µM | [2] > 10 µM | [20] > 10 µM | [3] > 10 µM | [4] > 10 µM | [5] > 10 µM | [6] > 10 µM | [7] > 10 µM | [8] > 10 µM | [9] > 10 µM | [10] > 10 µM | [11] > 10 µM | [12] > 10 µM | [13] > 10 µM | [14] > 10 µM | [15] > 10 µM | [16] > 10 µM | [17] > 10 µM | [18] > 10 µM

Cc1ccc(O)c(Cc2nc3ccccc3nc2-c2cccc(Cl)c2)c1
inactive: [1] > 100 µM | [20] > 100 µM | [3] 54.3 µM | [4] > 100 µM | [5] 55.2 µM | [6] > 100 µM | [7] 59 µM | [8] 34.7 µM | [9] 24.7 µM | [10] 22.5 µM | [11] > 100 µM | [12] 40.2 µM | [13] 21 µM | [14] 58.6 µM | [15] 74.6 µM | [16] 20.3 µM | [17] > 100 µM | [18] 87.1 µM | [19] 35.4 µM

CCCNCc1nc2ccc(Br)cc2c(=O)n1CCC
inactive: [1] 15.4 µM | [2] 17.1 µM | [20] 14.1 µM | [5] 13.6 µM | [6] 16.9 µM | [7] 13.7 µM | [8] 19.1 µM | [9] 11.7 µM | [10] 3.67 µM | [11] 13.4 µM | [12] 7.55 µM | [13] 16.8 µM | [14] 14.6 µM | [15] 13.3 µM | [16] 13.4 µM | [17] 13.5 µM | [18] 15.8 µM | [19] 13.3 µM

O=c1c2cccnc2n2n1Cc1ccccc1C2
inactive: [1] > 100 µM | [2] > 100 µM | [3] > 100 µM | [4] > 100 µM | [5] > 100 µM | [6] > 100 µM | [7] > 100 µM | [8] 71.3 µM | [9] > 100 µM | [10] > 100 µM | [11] > 100 µM | [12] > 100 µM | [15] > 100 µM | [16] > 100 µM | [17] > 100 µM | [18] > 100 µM | [19] > 100 µM

COC(=O)C1CC(OC(C)=O)C=C2C(=O)CCC21 (configuration not stated)
inactive: [1] 14.8 µM | [2] 15.2 µM | [20] 16.7 µM | [3] 17.1 µM | [5] 19.2 µM | [7] 20.3 µM | [9] 14 µM | [10] 21.4 µM | [11] 18.5 µM | [12] 20.5 µM | [13] 26.2 µM | [14] 18.7 µM | [15] 16.8 µM | [16] 1.89 µM | [17] 19.6 µM | [18] 20.6 µM | [19] 28.3 µM

CC(=O)Oc1ccccc1C(=O)O [ASPIRIN]
inactive: [1] > 100 µM | [2] > 100 µM | [20] > 100 µM | [4] > 100 µM | [5] > 100 µM | [6] > 100 µM | [7] > 100 µM | [8] > 100 µM | [9] > 100 µM | [10] > 100 µM | [11] > 100 µM | [12] > 100 µM | [13] > 100 µM | [14] > 100 µM | [15] > 100 µM | [16] > 100 µM | [17] > 100 µM | [18] > 100 µM | [19] > 100 µM
